Columns and labels:
L3.6pl cells [1] = test: Intracellular leucine and methionine after cell lysis (LCMS); type: cell-based, human; settings: 72 h
Procedure: This example illustrates aspects according to various embodiments pertaining to a 72 h experiment with Compound 10 in L3.6pl cells. Ten milliliters of a cell suspension containing L3.6pl human pancreatic cancer cells (50,000 cells/mL) and aminoguanidine ([…]) were placed in treated plastic Petri dishes (d=9 cm) and incubated overnight at 37° C. After 24 h, the cells were dosed with compound 10 at 2 μM, 5 μM, or 7 μM. (Note: Stock solutions of 10 at 2, 5, and 7 mM were dissolved in phosphate buffered saline (PBS) and were filtered through a 0.2 μm filter prior to use. The experiments were maintained with a total volume of 10.01 mL where 10 mL of the cell suspension was placed in a plastic dish and each compound or the equivalent PBS volume was added to make up the total volume 10.01 mL for each dish. For example, for the control experiment PBS (10 μL) was added to make up the total volume (10 mL+10 μL=10.01 mL). After 72 h incubation, the cells were collected first by pipetting off the supernatant containing floating dead cells from the culture dish as well as media and placing them into 15 mL tubes. The supernatant containing floating cells was centrifuged (4 min at 1,000 rpm). The cell-free supernatant (supernatant #1) was collected into a new 15 mL tube and quantified (˜8.6 mL) and was then stored frozen and was later quantified by LCMS to investigate the media composition of particular polyamine and amino acid analytes. The attached cells on the dish were washed with PBS (5 mL). The PBS wash was removed by suction and additional PBS (2 mL) was added and again suctioned off to provide twice-washed cells still adhered to the dish. Trypsin (2 mL) was then added to each dish and incubated (3-5 min) until all the cells were detached. Fresh media (8 mL) was added to quench the trypsin. The cell solutions were pipetted into separate 15 mL tubes and centrifuged (4 min at 1,000 rpm). The resulting supernatant was removed to provide a pellet. The pellet was suspended in PBS (10 mL) and was counted by a hemocytometer to provide cell counts for each experimental condition. The pellet was then centrifuged (4 min at 1,000 rpm) and the supernatant removed and the remaining pellet was quantified via protein and polyamine analysis.
To each cell pellet, a perchloric acid (100 μL) buffer solution (0.2M HClO4/1 M NaCl) and 0.9% NaCl (50 μL) was added. The samples were sonicated via sonic dismembranator in small bursts until samples were homogenized and cloudy. Additional perchloric acid (50 μL) buffer solution was added. The homogenized samples were then vortexed and centrifuged (10 min at 4,000 rpm). The supernatants of the respective samples (supernatant #2) were removed and quantified by calibrated pipet (˜190 μL volume). Note: 100 μL of supernatant #2 was placed into a micro-centrifuge tube for polyamine analysis by the N-dansylation HPLC protocol and the rest was placed into a different micro-centrifuge tube for analysis by LCMS of specific amino acid analytes. The respective supernatants were stored in the freezer for polyamine and LCMS quantification and the remaining protein pellet was used for the protein analysis. The protein pellet was dissolved in aq. NaOH (1 mM, 200 μL). The sample stood at room temperature with occasional vortex (45 min) and was then centrifuged (15 min at 15,000 rpm). The supernatant was collected and dissolved protein was quantified using the commercial Pierce BCA kit according to manufacturer's protocol.
This example illustrates aspects according to various embodiments pertaining to an LCMS Analysis. […]

CHO-K1 cells = test: Rescue by exogenous native polyamines in CHO-K1 cells; type: cell-based, Chinese hamster; settings: CHO-K1, toxic concentration of compound 10 (results not shown)
L3.6pl cells [2] = test: Ant-44 toxicity potentiation assay in L3.6pl cells; type: cell-based, human
Procedure: As performed previously with CHO K1 cells, L3.6pl cells were treated with compounds 9 (1666.177) and 10 (1666.255) and a fixed dose of Ant-44 to observe the potentiation effect. The 72 h IC50 dose of Ant-44 in L3.6pl cells was previously determined to be 4 μM. For this study, half that dose was used to replicate the large window used in the CHO experiments to look at reduction in cell viability. In a 96-well plate, L3.6pl cells were dosed with a fixed concentration of Ant-44 (2 μM) and increasing doses of compounds 9 (1666.177) and 10 (1666.255). Although both compounds were effective at reducing cell viability, higher doses were required compared to CHO K1 cells.
FIG. 6 is an example according to various embodiments, illustrating the ability of compounds 9 (1666.177) and 10 ([…]) to potentiate the effect of Ant-44 in L3.6pl cells. Cells were incubated for 72 h at 37° C. with the respective compound and Ant-44 (2 μM). A 250 μM AG solution was incubated with the cells for 24 h prior to addition of compounds. […] Both compounds are nontoxic at the second highest concentration tested (1 μM).

CHO-MG cells = test: Cytotoxicity IC50 (MTS) in polyamine-transport-deficient CHO-MG cells; type: cell-based, Chinese hamster; settings: Cricetulus griseus, 48 h
Procedure: Regarding the biological studies performed in the following examples, it is noted that CHO K1, CHO-MG, and L3.6pl cells were grown in RPMI 1640 medium supplemented with 10% fetal bovine serum (FBS) and 1% penicillin/streptomycin. All cells were grown at 37° C. under a humidified 5% CO2 atmosphere. Aminoguanidine (1 mM used for CHO K1 and CHOMG cells and 250 μM for L3.6pl) was added to the growth medium to prevent oxidation of the compounds of the bovine serum amine oxidase enzyme that is present in calf serum. The cells used were in early to mid log phase and CHO and CHOMG were plated out at 1000 cells/well, whereas the L3.6pl cells were plated at 500 cells/well in a 96 well plate format.
This example illustrates aspects according to various embodiments pertaining to IC50 determinations and cell viability studies. Cell growth was assayed in sterile 96-well microtiter plates (Costar 3599, Corning, N.Y.). CHO K1 or CHOMG cells were plated at 1,000 cells/70 μL and L3.6pl cells at 500 cells/70 μL. […] After drug exposure (e.g., for 48 h for CHO K1 and CHO-MG and 48 h or 72 h for L3.6pl), cell growth was determined by measuring formazan formation from the 3-(4,5dimethylthiazol-2-yl)-5-(3-carboxymethoxyphenyl)-2-(4-sulfenyl)-2H tetrazolium, inner salt (MTS) using SynergyMx Biotek microplate reader for absorbance (490 nm) measurements.^27 All experiments were run in triplicate.

In the case of `CC(C)CCN1CCN(C(CNCc2ccccc2)CC2CCCCC2)CC1CC(C)C.Cl.Cl.Cl` (stereo not shown) [Compound 10, Benzyl-{3-cyclohexyl-2-[3-isobutyl-4-(3-methyl-butyl)-piperazin-1-yl]-propyl}-amine trihydrochloride salt], the “Intracellular level Leucine” value (L3.6pl cells [1]; 2 μM) is reported as 152 ± 8 pmol/mg protein, the “Intracellular level Methionine” value (L3.6pl cells [1]; 2 μM) is reported as 226 ± 21 pmol/mg protein and the “Intracellular level Leucine” value (L3.6pl cells [1]; 5 μM) is reported as 94 ± 3 pmol/mg protein. The “Intracellular level Methionine” value (L3.6pl cells [1]; 5 μM) was 41 ± 23 pmol/mg protein, the “Intracellular level Leucine” value (L3.6pl cells [1]; 7 μM) was 77 ± 1 pmol/mg protein and the “Intracellular level Methionine” value (L3.6pl cells [1]; 7 μM) was “Not detected”. For the same compound, the “rescue of treated cells by native polyamines” value (CHO-K1 cells) was “unable to rescue”, the “effectiveness at increasing the potency of Ant-44 relative to compound 9” value (L3.6pl cells [2]) was “approximately eleven times more effective” and the EC50 (L3.6pl cells [2]; Homo sapiens, Ant-44 2 μM, 72 h) was 0.29 ± 0.1 µM. The IC50 (CHO-MG cells) was 8.93 ± 0.75 µM.
